According to patent US20100272680A1, “Piperidinyl Cyclic Amido Antiviral Agents” (priority 2009, published 2010):

Experiments:
HCV Genotype 1A Replicon = test: Replicon assay, genotype 1a subgenomic replicon, luciferase readout; type: cell-based; settings: Hepatitis C virus, 48 h, Table 3; luciferase activity after 48 hours
In short: (§1)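 EC50 values came from four-parameter logistic fits of 10-point dose responses (3–4-fold steps, final 0.03–50 μM, 0.5–1% DMSO), normalized against no-compound and no-cell controls. Firefly luciferase was read 48 h after plating 0.5×10^4 replicon cells/well, 1b ET or 1a Apath-derived line.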

HCV Genotype 1B Replicon = test: Replicon assay, genotype 1b subgenomic replicon (ET cell line), luciferase readout; type: cell-based; settings: Hepatitis C virus, 48 h, Table 3; luciferase activity after 48 hours
In short: as §1

Row | Structure (SMILES) | EC50 (HCV Genotype 1A Replicon) [nM] | EC50 (HCV Genotype 1B Replicon) [nM]
1 | O=C(c1nc2c(C(F)(F)F)cc(-c3cn[nH]n3)cn2c1Cl)N1CCC(N2CCOC2=O)CC1 [Compound 148, 3-(1-{[3-chloro-6-(2H-1,2,3-triazol-4-yl)-8-(trifluoromethyl)imidazo[1,2-a]pyridin-2-yl]carbonyl}-4-piperidinyl)-1,3-oxazolidin-2-one] | 220 | 540
2 | O=C(c1nc2c(C(F)(F)F)cc(-c3ncc[nH]3)cn2c1Cl)N1CCC(N2CCOC2=O)CC1 [Compound 149, 3-(1-{[3-chloro-6-(1H-imidazol-2-yl)-8-(trifluoromethyl)imidazo[1,2-a]pyridin-2-yl]carbonyl}-4-piperidinyl)-1,3-oxazolidin-2-one] | 2250 | 80
3 | O=C(c1nc2c(C(F)(F)F)cc(-c3ccc[nH]3)cn2c1Cl)N1CCC(N2CCOC2=O)CC1 [Compound 150, 3-(1-{[3-chloro-6-(1H-pyrrol-2-yl)-8-(trifluoromethyl)imidazo[1,2-a]pyridin-2-yl]carbonyl}-4-piperidinyl)-1,3-oxazolidin-2-one] | 230 | 450
4 | Cc1cc(C(F)(F)F)c2nc(C(=O)N3CCC(N4CCOC4=O)CC3)c(Cl)n2c1 [Compound 151, 3-(1-{[3-chloro-6-methyl-8-(trifluoromethyl)imidazo[1,2-a]pyridin-2-yl]carbonyl}-4-piperidinyl)-1,3-oxazolidin-2-one] | 650 | 500
5 | CCc1cc(C(F)(F)F)c2nc(C(=O)N3CCC(N4CCOC4=O)CC3)c(Cl)n2c1 [Compound 152, 3-(1-{[3-chloro-6-ethyl-8-(trifluoromethyl)imidazo[1,2-a]pyridin-2-yl]carbonyl}-4-piperidinyl)-1,3-oxazolidin-2-one] | 50 | 70
6 | C=Cc1cc(C(F)(F)F)c2nc(C(=O)N3CCC(N4CCOC4=O)CC3)c(Cl)n2c1 [Compound 153, 3-(1-{[3-chloro-6-ethenyl-8-(trifluoromethyl)imidazo[1,2-a]pyridin-2-yl]carbonyl}-4-piperidinyl)-1,3-oxazolidin-2-one] | 80 | 70
7 | CC(C)c1cc(C(F)(F)F)c2nc(C(=O)N3CCC(N4CCOC4=O)CC3)c(Cl)n2c1 [Compound 154, 3-(1-{[3-chloro-6-(1-methylethyl)-8-(trifluoromethyl)imidazo[1,2-a]pyridin-2-yl]carbonyl}-4-piperidinyl)-1,3-oxazolidin-2-one] | 20 | 20
8 | CC(O)c1cc(C(F)(F)F)c2nc(C(=O)N3CCC(N4CCOC4=O)CC3)c(Cl)n2c1 (stereo not drawn) [Compound 155, 3-(1-{[3-chloro-6-(1-hydroxyethyl)-8-(trifluoromethyl)imidazo[1,2-a]pyridin-2-yl]carbonyl}-4-piperidinyl)-1,3-oxazolidin-2-one] | 630 | 1080
9 | O=C(c1nc2c(C(F)(F)F)cc(C3CC3)cn2c1Cl)N1CCC(N2CCOC2=O)CC1 [Compound 156, 3-(1-{[3-chloro-6-cyclopropyl-8-(trifluoromethyl)imidazo[1,2-a]pyridin-2-yl]carbonyl}-4-piperidinyl)-1,3-oxazolidin-2-one] | 10 | 10
10 | O=C(c1nc2c(C(F)(F)F)cc(C(F)F)cn2c1Cl)N1CCC(N2CCOC2=O)CC1 [Compound 157, 3-(1-{[3-chloro-6-(difluoromethyl)-8-(trifluoromethyl)imidazo[1,2-a]pyridin-2-yl]carbonyl}-4-piperidinyl)-1,3-oxazolidin-2-one] | 20 | 150
11 | O=C(c1nc2c(C(F)(F)F)cc(-c3ccoc3)cn2c1Br)N1CCC(N2CCOC2=O)CC1 [Compound 158, 3-(1-{[3-bromo-6-(3-furanyl)-8-(trifluoromethyl)imidazo[1,2-a]pyridin-2-yl]carbonyl}-4-piperidinyl)-1,3-oxazolidin-2-one] | 10 | 40
12 | O=C(c1nc2c(C(F)(F)F)cc(-c3ccoc3)cn2c1Br)N1CCC(N2C(=O)COC2=O)CC1 [Compound 159, 3-(1-{[3-bromo-6-(3-furanyl)-8-(trifluoromethyl)imidazo[1,2-a]pyridin-2-yl]carbonyl}-4-piperidinyl)-1,3-oxazolidine-2,4-dione] | 30 | 30
13 | N#Cc1c(C(=O)N2CCC(N3CCOC3=O)CC2)nc2c(C(F)(F)F)cc(-c3ccoc3)cn12 [Compound 160, 6-(3-furanyl)-2-{[4-(2-oxo-1,3-oxazolidin-3-yl)-1-piperidinyl]carbonyl}-8-(trifluoromethyl)imidazo[1,2-a]pyridine-3-carbonitrile] | 10 | 10
14 | N#Cc1c(C(=O)N2CCC(N3C(=O)COC3=O)CC2)nc2c(C(F)(F)F)cc(-c3ccoc3)cn12 [Compound 161, 2-{[4-(2,4-dioxo-1,3-oxazolidin-3-yl)-1-piperidinyl]carbonyl}-6-(3-furanyl)-8-(trifluoromethyl)imidazo[1,2-a]pyridine-3-carbonitrile] | 30 | 30
15 | N#Cc1c(C(=O)N2CCC(N3CCOC3=O)CC2)nc2c(C(F)(F)F)cc(C3CC3)cn12 [Compound 162, 6-cyclopropyl-2-{[4-(2-oxo-1,3-oxazolidin-3-yl)-1-piperidinyl]carbonyl}-8-(trifluoromethyl)imidazo[1,2-a]pyridine-3-carbonitrile] | 10 | 10
16 | O=C(c1nc2c(C(F)(F)F)cc(C3CC3)cn2c1Cl)N1CCC(N2CC(O)CC2=O)CC1 (stereo not drawn) [Compound 163, 1-(1-{[3-chloro-6-cyclopropyl-8-(trifluoromethyl)imidazo[1,2-a]pyridin-2-yl]carbonyl}-4-piperidinyl)-4-hydroxy-2-pyrrolidinone] | 380 | 80
17 | Cc1c(C(=O)N2CCC(N3CCOC3=O)CC2)nc2c(C(F)(F)F)cc(-c3ccoc3)cn12 [Compound 164, 3-(1-{[6-(3-furanyl)-3-methyl-8-(trifluoromethyl)imidazo[1,2-a]pyridin-2-yl]carbonyl}-4-piperidinyl)-1,3-oxazolidin-2-one] | 30 | 100
18 | CC(C)c1c(C(=O)N2CCC(N3CCOC3=O)CC2)nc2c(C(F)(F)F)cc(-c3ccoc3)cn12 [Compound 165, 3-(1-{[6-(3-furanyl)-3-(1-methylethyl)-8-(trifluoromethyl)imidazo[1,2-a]pyridin-2-yl]carbonyl}-4-piperidinyl)-1,3-oxazolidin-2-one] | ≥ 5010 | ≥ 5010
19 | O=C(c1nc2c(C(F)(F)F)cc(-c3ccoc3)cn2c1CO)N1CCC(N2CCOC2=O)CC1 [Compound 166, 3-(1-{[6-(3-furanyl)-3-(hydroxymethyl)-8-(trifluoromethyl)imidazo[1,2-a]pyridin-2-yl]carbonyl}-4-piperidinyl)-1,3-oxazolidin-2-one] | 920 | 2000
20 | O=C(c1nc2c(C(F)(F)F)cc(-c3cn[nH]c3)cn2c1Cl)N1CCC(N2C(=O)CCC2=O)CC1 [Compound 167, 1-(1-{[3-chloro-6-(1H-pyrazol-4-yl)-8-(trifluoromethyl)imidazo[1,2-a]pyridin-2-yl]carbonyl}-4-piperidinyl)-2,5-pyrrolidinedione] | 630 | 520
21 | O=C(c1nc2c(C(F)(F)F)cc(-c3ccoc3)cn2c1Cl)N1CCC(N2C(=O)CCC2=O)CC1 [Compound 168, 1-(1-{[3-chloro-6-(3-furanyl)-8-(trifluoromethyl)imidazo[1,2-a]pyridin-2-yl]carbonyl}-4-piperidinyl)-2,5-pyrrolidinedione] | 100 | 70
